Laboratory results: ChEMBL document CHEMBL5532653, “Dual inhibitors of HDAC and other epigenetic regulators: A novel strategy for cancer treatment” (Eur J Med Chem, 2024)
Values belong to the molecule of their own block, whether it stands above or below them.

Tests used:
[1] = system: U-937; assay: Antiproliferative activity against human U-937 cells assessed as inhibition of cell growth at 3 uM measured after 72 hrs by CellTiter-Glo luminescent cell viability assay relative to control; assay type: functional
[2] = system: MCF7; assay: Antiproliferative activity against human MCF7 cells assessed as reduction in cell growth incubated for 72 hrs by MTT assay; assay type: functional, cell-based; details: MCF7, 72 h
[3] = system: HeLa; assay: Antiproliferative activity against human HeLa cells assessed as reduction in cell viability by MTT assay; assay type: functional, cell-based
[4] = Cytotoxicity against human HEK293T cells assessed as cell growth inhibition by MTT assay; assay type: toxicity, cell-based, HEK-293T
[5] = system: A549; assay: Antiproliferative activity against human A549 cells assessed as reduction in cell viability measured after 48 hrs by MTT assay; assay type: functional, cell-based; details: A549, 48 h
[6] = system: K562; assay: Antiproliferative activity against human K562 cells assessed as reduction in cell viability by MTT assay; assay type: functional, cell-based
[7] = system: D283 Med; assay: Antiproliferative activity against human D283 Med cells assessed as inhibition of cell growth measured after 72 hrs by CellTiter-Glo assay; assay type: functional, cell-based
[8] = biological target: T1, Histone deacetylase 2 (Homo sapiens, UniProt Q92769); assay: Inhibition of human recombinant HDAC2 in HeLa cells using Boc-Lys(Ac)-AMC or Boc-Lys(Tfa)-AMC as fluorogenic substrate preincubated for 10 mins followed by substrate addition and measured after 1 hr by fluorescence based analysis; assay type: cell-based
[9] = biological target: T2, Protein deacetylase HDAC6 (Homo sapiens, UniProt Q9UBN7); assay: Inhibition of human recombinant HDAC6 in HeLa cells using Boc-Lys(Ac)-AMC or Boc-Lys(Tfa)-AMC as fluorogenic substrate preincubated for 10 mins followed by substrate addition and measured after 1 hr by fluorescence based analysis; assay type: cell-based
T2 sequence (Q9UBN7 whole entry): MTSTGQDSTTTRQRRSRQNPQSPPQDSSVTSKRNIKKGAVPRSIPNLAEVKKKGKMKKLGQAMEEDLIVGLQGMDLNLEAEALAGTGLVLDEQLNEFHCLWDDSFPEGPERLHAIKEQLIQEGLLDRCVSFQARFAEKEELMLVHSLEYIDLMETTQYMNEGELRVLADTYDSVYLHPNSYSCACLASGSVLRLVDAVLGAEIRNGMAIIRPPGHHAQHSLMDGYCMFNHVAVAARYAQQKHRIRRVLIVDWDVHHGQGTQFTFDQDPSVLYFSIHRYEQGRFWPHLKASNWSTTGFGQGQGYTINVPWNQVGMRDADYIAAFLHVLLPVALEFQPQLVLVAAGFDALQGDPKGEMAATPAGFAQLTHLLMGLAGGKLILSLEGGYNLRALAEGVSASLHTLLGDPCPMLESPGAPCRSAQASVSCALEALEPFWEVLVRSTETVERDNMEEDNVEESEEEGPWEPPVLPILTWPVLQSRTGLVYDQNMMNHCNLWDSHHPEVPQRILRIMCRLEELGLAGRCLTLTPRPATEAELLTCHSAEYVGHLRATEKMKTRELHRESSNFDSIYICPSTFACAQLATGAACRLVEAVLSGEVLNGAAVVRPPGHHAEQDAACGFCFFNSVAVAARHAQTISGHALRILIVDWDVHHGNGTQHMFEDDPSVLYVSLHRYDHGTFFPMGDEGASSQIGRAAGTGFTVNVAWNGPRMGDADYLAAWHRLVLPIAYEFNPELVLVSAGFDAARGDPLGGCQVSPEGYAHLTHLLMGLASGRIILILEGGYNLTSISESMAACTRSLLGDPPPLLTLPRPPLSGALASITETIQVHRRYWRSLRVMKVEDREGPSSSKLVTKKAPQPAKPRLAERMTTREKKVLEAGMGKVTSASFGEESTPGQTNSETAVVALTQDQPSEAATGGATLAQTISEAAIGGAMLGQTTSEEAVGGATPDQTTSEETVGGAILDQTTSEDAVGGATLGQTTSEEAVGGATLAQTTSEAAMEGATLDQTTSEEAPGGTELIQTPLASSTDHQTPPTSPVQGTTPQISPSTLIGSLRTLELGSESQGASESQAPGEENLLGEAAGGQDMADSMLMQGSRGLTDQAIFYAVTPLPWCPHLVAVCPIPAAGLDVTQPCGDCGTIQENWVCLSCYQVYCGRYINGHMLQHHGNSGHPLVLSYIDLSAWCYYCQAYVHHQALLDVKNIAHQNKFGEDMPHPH

[10] = biological target: Histone deacetylase; assay: Inhibition of human recombinant HDAC in HeLa cells using Boc-Lys(Ac)-AMC or Boc-Lys(Tfa)-AMC as fluorogenic substrate preincubated for 10 mins followed by substrate addition and measured after 1 hr by fluorescence based analysis; assay type: cell-based
[11] = biological target: T3, Histone deacetylase 1 (Homo sapiens, UniProt Q13547); assay: Inhibition of HDAC1 (unknown origin) using Boc-Lys(Ac)-AMC or Boc-Lys(Tfa)-AMC as substrate incubated for 1 hr by fluorescence based analysis
[12] = biological target: T2, Protein deacetylase HDAC6; assay: Inhibition of HDAC6 (unknown origin) using expressed in Sf9 cells using Boc-Lys(acetyI)-AMC as substrate preincubated for 1 hr followed by substrate addition and measured after 30 mins by fluorescence based analysis
[13] = system: U-937; assay: Antiproliferative activity against human U-937 cells assessed as reduction in cell growth incubated for 72 hrs by MTT assay; assay type: functional, cell-based; details: U-937, 72 h
[14] = biological target: T4, DNA (cytosine-5)-methyltransferase 1 (Homo sapiens, UniProt P26358); assay: Inhibition of DNMT1 (unknown origin) using SAM as substrate at 1 uM by fluorescence assay relative to control
[15] = system: NCI-H460; assay: Antiproliferative activity against human NCI-H460 cells assessed as reduction in cell growth measured after 72 hrs by MTT assay; assay type: functional, cell-based; details: NCI-H460, 72 h
[16] = system: MEF; assay: Antiproliferative activity against mouse MEF cells assessed as cell growth inhibition measured after 48 hrs by MTT assay; assay type: functional, cell-based
[17] = Cytotoxicity against human CLL cells assessed as reduction in cell viability at 5 uM relative to control; assay type: toxicity, cell-based
[18] = Inhibition of HDAC1 ([…] residues) (unknown origin) FLAG-tagged CoREST1 (unknown origin) transfected in HEK293F cells using fluorogenic p53 (RHKK(Ac)AMC) as substrate preincubated for 30 mins followed by substrate addition and measured after 15 mins by fluorescence based analysis; design: species or system Homo sapiens
[19] = Antiproliferative activity against human WM983B cells assessed as reduction in cell growth incubated for 72 hrs by MTT assay; assay type: functional, cell-based
[20] = system: SK-MEL-5; assay: Antiproliferative activity against human SK-MEL-5 cells assessed as reduction in cell viability incubated for 72 hrs by MTT assay; assay type: functional, cell-based; details: SK-MEL-5, 72 h
[21] = Antiproliferative activity against human SCCIC1 cells assessed as cell growth inhibition measured after 72 hrs; assay type: functional, cell-based; details: SCCIC1, 72 h
[22] = Antiproliferative activity against human MET-1 cells assessed as reduction in cell viability incubated for 72 hrs by MTT assay; assay type: functional, cell-based; details: MET-1, 72 h
[23] = system: MCF7; assay: Antiproliferative activity against human MCF7 cells assessed as reduction in cell growth by MTT assay; assay type: functional, cell-based
[24] = system: MDA-MB-231; assay: Antiproliferative activity against human MDA-MB-231 cells assessed as reduction in cell growth by MTT assay; assay type: functional, cell-based
[25] = biological target: DNMT3A2/3L complex (Homo sapiens, UniProt Q9Y6K1); assay: Inhibition of DNMT3A/DNMT3L (unknown origin); assay type: protein-complex assay
[26] = biological target: T3, Histone deacetylase 1; assay: Inhibition of HDAC1 (unknown origin) using ArgHisLysLys(Ac) as substrate by fluorescence based analysis
[27] = biological target: T4, DNA (cytosine-5)-methyltransferase 1; assay: Inhibition of DNMT1 (unknown origin)
[28] = system: A549; assay: Antiproliferative activity against human A549 cells assessed as reduction in cell growth by MTT assay; assay type: functional, cell-based
[29] = biological target: DNMT3B-DNMT3L complex (Homo sapiens, UniProt Q9UBC3); assay: Inhibition of DNMT3B/3L (unknown origin); assay type: protein-complex assay
[30] = biological target: T2, Protein deacetylase HDAC6; assay: Inhibition of HDAC6 (unknown origin) using Ac-peptide as substrate preincubated for 15 mins followed by substrate addition and measured after 1 hr by HTRF analysis
[31] = biological target: T5, Bromodomain-containing protein 3 (Homo sapiens, UniProt Q15059); assay: Inhibition of recombinant BRD3 BD1 (unknown origin) incubated for 120 mins by TR-FRET assay
[32] = biological target: T6, Bromodomain-containing protein 2 (Homo sapiens, UniProt P25440); assay: Inhibition of BRD2 BD2 (unknown origin) incubated for 180 min by TR-FRET assay
[33] = biological target: Histone deacetylase 8 (Homo sapiens, UniProt Q9BY41); assay: Inhibition of HDAC8 (unknown origin) using Fluoro-Substrate Peptide as substrate by fluorescence assay
[34] = biological target: T6, Bromodomain-containing protein 2; assay: Inhibition of recombinant BRD2 BD1 (unknown origin) incubated for 120 mins by TR-FRET assay
[35] = biological target: T2, Protein deacetylase HDAC6; assay: Inhibition of HDAC6 (unknown origin) by fluorescence based assay
[36] = biological target: T5, Bromodomain-containing protein 3; assay: Inhibition of BRD3 BD2 (unknown origin) incubated for 180 min by TR-FRET assay
[37] = biological target: T1, Histone deacetylase 2; assay: Inhibition of HDAC2 (unknown origin) by fluorescence based analysis
[38] = biological target: Bromodomain testis-specific protein (Homo sapiens, UniProt Q58F21); assay: Inhibition of BRDT BD2 (unknown origin) by TR-FRET assay
[39] = biological target: Histone deacetylase 3 (Homo sapiens, UniProt O15379); assay: Inhibition of HDAC3 (unknown origin) using biotinylated histone H3 KAc peptide (1 to 21 residues) as substrate by HTRF assay
Chain of Histone deacetylase 3 (O15379 whole entry, the tested form may be a part): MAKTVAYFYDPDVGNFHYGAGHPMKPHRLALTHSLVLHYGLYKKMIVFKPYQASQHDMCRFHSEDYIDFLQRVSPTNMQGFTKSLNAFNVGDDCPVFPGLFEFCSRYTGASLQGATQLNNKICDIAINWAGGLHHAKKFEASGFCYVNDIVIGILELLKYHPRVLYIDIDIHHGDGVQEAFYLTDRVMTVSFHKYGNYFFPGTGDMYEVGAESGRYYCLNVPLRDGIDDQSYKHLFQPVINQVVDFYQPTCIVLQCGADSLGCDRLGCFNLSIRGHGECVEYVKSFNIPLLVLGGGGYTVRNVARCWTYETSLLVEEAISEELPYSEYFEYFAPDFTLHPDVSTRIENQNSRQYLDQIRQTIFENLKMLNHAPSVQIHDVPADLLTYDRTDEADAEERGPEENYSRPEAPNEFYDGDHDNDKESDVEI

T3 sequence (Q13547 whole entry): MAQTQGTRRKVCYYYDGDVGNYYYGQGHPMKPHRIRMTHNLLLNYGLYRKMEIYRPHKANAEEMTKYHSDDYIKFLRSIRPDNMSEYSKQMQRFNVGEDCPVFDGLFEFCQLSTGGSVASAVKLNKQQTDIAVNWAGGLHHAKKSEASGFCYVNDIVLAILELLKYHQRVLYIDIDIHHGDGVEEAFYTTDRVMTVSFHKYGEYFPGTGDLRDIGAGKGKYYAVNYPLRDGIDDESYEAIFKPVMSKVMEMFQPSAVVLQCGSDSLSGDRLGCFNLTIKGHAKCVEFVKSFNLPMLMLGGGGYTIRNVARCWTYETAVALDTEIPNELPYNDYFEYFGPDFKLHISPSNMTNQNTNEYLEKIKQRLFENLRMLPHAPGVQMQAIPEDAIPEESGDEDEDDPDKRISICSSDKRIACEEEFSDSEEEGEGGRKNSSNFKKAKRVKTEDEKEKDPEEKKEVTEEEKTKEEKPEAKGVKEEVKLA
T1 sequence (Q92769 whole entry): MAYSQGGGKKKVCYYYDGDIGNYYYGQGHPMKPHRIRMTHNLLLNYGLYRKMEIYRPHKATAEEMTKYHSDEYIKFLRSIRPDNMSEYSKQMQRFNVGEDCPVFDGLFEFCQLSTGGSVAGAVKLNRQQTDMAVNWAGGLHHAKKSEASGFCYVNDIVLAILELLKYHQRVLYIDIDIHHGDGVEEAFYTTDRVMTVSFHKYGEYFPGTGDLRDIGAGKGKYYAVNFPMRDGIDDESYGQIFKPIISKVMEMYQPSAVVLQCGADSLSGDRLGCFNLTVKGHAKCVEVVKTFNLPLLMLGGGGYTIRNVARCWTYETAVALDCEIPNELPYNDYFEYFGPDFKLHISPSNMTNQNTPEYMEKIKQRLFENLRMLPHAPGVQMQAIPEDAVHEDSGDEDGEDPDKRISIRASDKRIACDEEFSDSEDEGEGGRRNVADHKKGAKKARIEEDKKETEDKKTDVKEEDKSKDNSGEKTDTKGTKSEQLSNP
T4 sequence (P26358 whole entry): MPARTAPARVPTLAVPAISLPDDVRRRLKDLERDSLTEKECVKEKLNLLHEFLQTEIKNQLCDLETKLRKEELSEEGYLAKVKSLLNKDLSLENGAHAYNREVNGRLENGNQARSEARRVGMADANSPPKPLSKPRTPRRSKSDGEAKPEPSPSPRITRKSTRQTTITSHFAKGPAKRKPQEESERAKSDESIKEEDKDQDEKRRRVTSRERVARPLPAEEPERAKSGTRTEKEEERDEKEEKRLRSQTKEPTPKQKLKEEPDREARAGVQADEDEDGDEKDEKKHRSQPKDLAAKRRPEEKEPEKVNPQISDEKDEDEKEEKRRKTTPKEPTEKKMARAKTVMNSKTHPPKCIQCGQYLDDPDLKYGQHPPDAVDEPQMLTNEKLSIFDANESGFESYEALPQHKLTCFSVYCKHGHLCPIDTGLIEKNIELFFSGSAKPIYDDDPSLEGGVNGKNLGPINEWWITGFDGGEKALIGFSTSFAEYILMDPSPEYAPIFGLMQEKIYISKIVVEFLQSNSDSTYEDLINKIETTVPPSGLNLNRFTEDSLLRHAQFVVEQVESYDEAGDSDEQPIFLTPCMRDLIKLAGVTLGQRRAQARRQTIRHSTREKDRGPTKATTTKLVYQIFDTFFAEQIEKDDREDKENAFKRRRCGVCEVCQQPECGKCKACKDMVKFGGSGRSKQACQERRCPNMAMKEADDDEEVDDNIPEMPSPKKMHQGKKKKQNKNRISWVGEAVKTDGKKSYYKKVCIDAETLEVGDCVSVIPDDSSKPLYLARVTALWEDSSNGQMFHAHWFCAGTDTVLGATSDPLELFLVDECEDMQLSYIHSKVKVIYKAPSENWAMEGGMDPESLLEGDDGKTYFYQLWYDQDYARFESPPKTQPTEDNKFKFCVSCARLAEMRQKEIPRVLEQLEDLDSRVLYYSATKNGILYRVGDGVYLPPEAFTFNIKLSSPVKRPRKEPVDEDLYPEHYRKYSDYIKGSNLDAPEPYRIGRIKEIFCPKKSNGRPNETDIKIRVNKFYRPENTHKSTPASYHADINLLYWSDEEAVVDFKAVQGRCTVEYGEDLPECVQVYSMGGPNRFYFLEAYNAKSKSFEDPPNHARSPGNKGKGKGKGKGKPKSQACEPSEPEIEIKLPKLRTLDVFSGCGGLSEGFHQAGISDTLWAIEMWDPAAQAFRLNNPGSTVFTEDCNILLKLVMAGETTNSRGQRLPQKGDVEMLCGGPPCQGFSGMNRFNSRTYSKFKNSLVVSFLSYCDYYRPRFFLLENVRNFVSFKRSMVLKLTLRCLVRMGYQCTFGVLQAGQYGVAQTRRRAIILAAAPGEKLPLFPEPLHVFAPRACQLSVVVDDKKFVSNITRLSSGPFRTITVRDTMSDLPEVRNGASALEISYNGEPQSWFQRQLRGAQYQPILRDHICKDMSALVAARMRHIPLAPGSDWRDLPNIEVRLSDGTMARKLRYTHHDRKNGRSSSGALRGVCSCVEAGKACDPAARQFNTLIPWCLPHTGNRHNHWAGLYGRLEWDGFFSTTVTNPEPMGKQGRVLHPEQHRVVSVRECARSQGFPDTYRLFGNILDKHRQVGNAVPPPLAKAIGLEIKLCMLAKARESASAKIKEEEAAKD
T6 sequence (P25440 whole entry): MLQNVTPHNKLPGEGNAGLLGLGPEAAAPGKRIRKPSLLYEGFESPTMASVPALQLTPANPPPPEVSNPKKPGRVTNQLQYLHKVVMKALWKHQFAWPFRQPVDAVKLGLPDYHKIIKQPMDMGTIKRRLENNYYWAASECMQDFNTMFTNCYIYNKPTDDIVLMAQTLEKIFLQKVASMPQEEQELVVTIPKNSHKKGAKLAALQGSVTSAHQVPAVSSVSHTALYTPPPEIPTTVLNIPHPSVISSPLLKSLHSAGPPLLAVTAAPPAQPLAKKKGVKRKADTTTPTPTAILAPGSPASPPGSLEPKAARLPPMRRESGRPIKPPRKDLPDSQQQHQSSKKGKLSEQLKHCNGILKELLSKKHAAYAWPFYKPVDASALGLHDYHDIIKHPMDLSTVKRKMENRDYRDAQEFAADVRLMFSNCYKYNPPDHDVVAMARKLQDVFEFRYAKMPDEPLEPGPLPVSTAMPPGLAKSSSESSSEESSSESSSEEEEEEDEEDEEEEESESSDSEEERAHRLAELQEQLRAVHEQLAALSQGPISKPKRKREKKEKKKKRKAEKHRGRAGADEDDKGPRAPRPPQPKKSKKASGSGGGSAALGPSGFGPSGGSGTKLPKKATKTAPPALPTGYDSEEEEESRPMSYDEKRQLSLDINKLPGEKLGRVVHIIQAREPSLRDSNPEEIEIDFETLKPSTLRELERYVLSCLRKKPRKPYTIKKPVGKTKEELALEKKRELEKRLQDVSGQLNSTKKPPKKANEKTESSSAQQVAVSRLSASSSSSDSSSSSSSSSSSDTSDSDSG
T5 sequence (Q15059 whole entry): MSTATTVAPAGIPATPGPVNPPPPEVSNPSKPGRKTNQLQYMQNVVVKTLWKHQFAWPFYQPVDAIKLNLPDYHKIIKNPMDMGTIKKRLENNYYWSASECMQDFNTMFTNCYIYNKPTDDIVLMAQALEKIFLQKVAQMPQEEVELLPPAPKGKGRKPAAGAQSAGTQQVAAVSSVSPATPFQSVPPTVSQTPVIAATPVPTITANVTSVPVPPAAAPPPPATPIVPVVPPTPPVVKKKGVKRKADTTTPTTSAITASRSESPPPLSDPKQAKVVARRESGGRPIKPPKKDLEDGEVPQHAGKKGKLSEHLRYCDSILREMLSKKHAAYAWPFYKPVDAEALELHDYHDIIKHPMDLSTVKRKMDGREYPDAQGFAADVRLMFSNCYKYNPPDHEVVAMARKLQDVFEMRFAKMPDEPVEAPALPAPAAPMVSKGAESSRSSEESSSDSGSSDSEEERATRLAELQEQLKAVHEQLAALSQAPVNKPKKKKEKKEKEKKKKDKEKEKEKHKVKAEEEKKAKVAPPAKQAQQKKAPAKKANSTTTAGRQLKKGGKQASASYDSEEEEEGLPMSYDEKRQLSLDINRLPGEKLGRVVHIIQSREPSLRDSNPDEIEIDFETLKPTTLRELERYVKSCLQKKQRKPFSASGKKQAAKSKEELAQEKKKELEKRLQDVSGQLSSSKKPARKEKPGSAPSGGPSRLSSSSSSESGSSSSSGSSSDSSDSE
Chain of Histone deacetylase 8 (Q9BY41 whole entry): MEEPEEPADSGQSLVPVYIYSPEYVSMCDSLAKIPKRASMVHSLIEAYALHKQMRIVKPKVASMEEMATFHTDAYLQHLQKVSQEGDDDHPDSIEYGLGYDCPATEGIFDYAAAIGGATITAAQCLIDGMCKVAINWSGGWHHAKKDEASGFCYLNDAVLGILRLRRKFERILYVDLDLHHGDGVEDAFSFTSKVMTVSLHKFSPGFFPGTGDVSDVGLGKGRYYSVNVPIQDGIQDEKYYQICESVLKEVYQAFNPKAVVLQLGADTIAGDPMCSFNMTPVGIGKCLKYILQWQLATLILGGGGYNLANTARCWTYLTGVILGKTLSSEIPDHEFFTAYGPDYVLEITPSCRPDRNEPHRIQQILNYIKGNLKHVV

SMILES: Cc1sc2c(c1C)C(c1ccc(Cl)cc1)=N[C@@H](CC(=O)NCCCC(=O)Nc1ccccc1N)c1nnc(C)n1-2
inhibition at 3 µM [1]: 84%

SMILES: COc1ccc2c(NC3CCN(Cc4ccccc4)CC3)nc(NCCNC(=O)CCCCC(=O)NO)nc2c1
IC50 [2]: 37400 nM | IC50 [3]: 15300 nM | IC50 [4]: 20000 nM | IC50 [5]: 36200 nM | IC50 [6]: 5740 nM

SMILES: Cn1cc(-c2ccc(S(=O)(=O)n3ccc(/C=C/C(=O)Nc4ccccc4N)c3)cc2)cn1 [DOMATINOSTAT]
IC50 [7]: 150 nM

SMILES: Cc1noc(C)c1-c1ccc2c(c1)c(Cc1ccc(F)cc1)cn2CCCCCCC(=O)NO
IC50 [8]: 29 nM | IC50 [9]: > 1000 nM | IC50 [10]: 291 nM

SMILES: Cn1c(CCCCCCC(=O)NO)nc2cc(N(CCCl)CCCl)ccc21 [TINOSTAMUSTINE]
IC50 [15]: 2200 nM | IC50 [16]: 5700 nM | Activity [17]: ~ 100 nM

SMILES: Cc1sc2c(c1C)C(c1ccc(Cl)cc1)=N[C@@H](CC(=O)Nc1ccc(C(=O)NO)cc1)c1nnc(C)n1-2
IC50 [31]: 133 nM | IC50 [32]: 78 nM | IC50 [33]: 192 nM | IC50 [34]: 316 nM | IC50 [35]: 34 nM | IC50 [36]: 38 nM | IC50 [37]: 52 nM | IC50 [38]: 32200 nM | IC50 [39]: 39 nM

Further lines, with some results ahead:

IC50 [11]: 2.4 nM | IC50 [12]: 4.8 nM | IC50 [13]: 1300 nM | inhibition [14]: 44.5%
SMILES: Nc1ncnc2c1ncn2Cc1ccc(-c2cn(CCCCCCC(=O)NO)nn2)cc1

IC50 [18]: 206 nM | IC50 [20]: 130 nM
SMILES: Nc1ccccc1NC(=O)c1ccc(CCCC(=O)Nc2ccc(C3CC3N)cc2)cc1 (centres undefined)
IC50 [19]: 200 nM | IC50 [21]: 41 nM | IC50 [22]: 6 nM

IC50 [23]: 1880 nM | IC50 [24]: 4650 nM | IC50 [25]: 930 nM | IC50 [26]: 4160 nM | IC50 [27]: 2020 nM | IC50 [28]: 3920 nM | IC50 [29]: 1320 nM | IC50 [30]: > 100000 nM
SMILES: O=C(NO)C1CCN(C[C@@H](O)COC(Cn2c3ccccc3c3ccccc32)Cn2c3ccccc3c3ccccc32)CC1
